Test results: ChEMBL document CHEMBL6134888, “Challenging the "Undruggable"─Targeting STAT3 but Identifying Potent TrkA-Targeted Inhibitors” (J Med Chem, 2025)

How the values were obtained:
[1] = biological target: T1, Tyrosine-protein kinase JAK2 (Homo sapiens, UniProt O60674); assay: Inhibition of JAK2 (unknown origin) by Z-LYTE Kinase assay
[2] = Metabolic stability in human liver microsome assessed as half life measured up to 60 mins by HPLC-MS/MS analysis; format: ADME; settings: liver microsomes
[3] = Metabolic stability in human liver microsome assessed as intrinsic clearance measured up to 60 mins by HPLC-MS/MS analysis; format: ADME; settings: liver microsomes, read-out: CLH
[4] = Plasma protein binding in human; format: ADME, cell-free; settings: read-out: PPB (converted)
[5] = Apparent permeability of compound across apical to basolateral side in human Caco-2 cells; format: ADME, cell-based
[6] = biological target: BDNF/NT-3 growth factors receptor (Homo sapiens, UniProt Q16620); assay: Binding affinity to TRKB (unknown origin) assessed as dissociation constant by KINOMEscan assay
[7] = biological target: T2, Proto-oncogene tyrosine-protein kinase Src (Homo sapiens, UniProt P12931); assay: Inhibition of SRC (unknown origin) by Z-LYTE Kinase assay
MDA-MB-231 [8] = assay: Cytotoxicity against human MDA-MB-231 cells assessed as cell viability at 100 uM incubated for 72 hrs by resazurin based analysis relative to control; format: functional; settings: read-out: Activity
LS174T [9] = assay: Cytotoxicity against human LS174T cells assessed as cell viability at 100 uM incubated for 72 hrs by resazurin based analysis relative to control; format: functional; settings: read-out: Activity
[10] = biological target: Tyrosine-protein kinase ABL1 (Homo sapiens, UniProt P00519); assay: Binding affinity to ABL1 (unknown origin) assessed as dissociation constant
[11] = biological target: T1, Tyrosine-protein kinase JAK2; assay: Binding affinity to JAK2 (unknown origin) assessed as dissociation constant
[12] = biological target: T2, Proto-oncogene tyrosine-protein kinase Src; assay: Binding affinity to SRC (unknown origin) assessed as dissociation constant
[13] = biological target: T3, High affinity nerve growth factor receptor (Homo sapiens, UniProt P04629); assay: Binding affinity to TRKA (unknown origin) assessed as dissociation constant
[14] = biological target: T4, Serine/threonine-protein kinase Nek2 (Homo sapiens, UniProt P51955); assay: Inhibition of NEK2 (unknown origin)
T4 sequence (P51955 whole entry): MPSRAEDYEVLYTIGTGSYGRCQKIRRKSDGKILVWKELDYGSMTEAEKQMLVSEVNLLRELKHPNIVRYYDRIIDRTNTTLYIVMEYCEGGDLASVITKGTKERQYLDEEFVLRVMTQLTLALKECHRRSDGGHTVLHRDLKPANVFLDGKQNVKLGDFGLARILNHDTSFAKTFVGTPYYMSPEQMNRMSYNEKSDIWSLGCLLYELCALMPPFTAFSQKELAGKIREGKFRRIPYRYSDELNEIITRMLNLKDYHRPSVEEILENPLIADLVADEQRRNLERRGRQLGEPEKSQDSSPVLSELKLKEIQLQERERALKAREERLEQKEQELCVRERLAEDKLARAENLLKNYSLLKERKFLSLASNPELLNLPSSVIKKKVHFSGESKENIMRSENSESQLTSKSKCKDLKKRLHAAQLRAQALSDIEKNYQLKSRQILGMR

[15] = biological target: T5, Receptor-type tyrosine-protein kinase FLT3 (Homo sapiens, UniProt P36888); assay: Inhibition of FLT3 (unknown origin)
T5 sequence (P36888 whole entry): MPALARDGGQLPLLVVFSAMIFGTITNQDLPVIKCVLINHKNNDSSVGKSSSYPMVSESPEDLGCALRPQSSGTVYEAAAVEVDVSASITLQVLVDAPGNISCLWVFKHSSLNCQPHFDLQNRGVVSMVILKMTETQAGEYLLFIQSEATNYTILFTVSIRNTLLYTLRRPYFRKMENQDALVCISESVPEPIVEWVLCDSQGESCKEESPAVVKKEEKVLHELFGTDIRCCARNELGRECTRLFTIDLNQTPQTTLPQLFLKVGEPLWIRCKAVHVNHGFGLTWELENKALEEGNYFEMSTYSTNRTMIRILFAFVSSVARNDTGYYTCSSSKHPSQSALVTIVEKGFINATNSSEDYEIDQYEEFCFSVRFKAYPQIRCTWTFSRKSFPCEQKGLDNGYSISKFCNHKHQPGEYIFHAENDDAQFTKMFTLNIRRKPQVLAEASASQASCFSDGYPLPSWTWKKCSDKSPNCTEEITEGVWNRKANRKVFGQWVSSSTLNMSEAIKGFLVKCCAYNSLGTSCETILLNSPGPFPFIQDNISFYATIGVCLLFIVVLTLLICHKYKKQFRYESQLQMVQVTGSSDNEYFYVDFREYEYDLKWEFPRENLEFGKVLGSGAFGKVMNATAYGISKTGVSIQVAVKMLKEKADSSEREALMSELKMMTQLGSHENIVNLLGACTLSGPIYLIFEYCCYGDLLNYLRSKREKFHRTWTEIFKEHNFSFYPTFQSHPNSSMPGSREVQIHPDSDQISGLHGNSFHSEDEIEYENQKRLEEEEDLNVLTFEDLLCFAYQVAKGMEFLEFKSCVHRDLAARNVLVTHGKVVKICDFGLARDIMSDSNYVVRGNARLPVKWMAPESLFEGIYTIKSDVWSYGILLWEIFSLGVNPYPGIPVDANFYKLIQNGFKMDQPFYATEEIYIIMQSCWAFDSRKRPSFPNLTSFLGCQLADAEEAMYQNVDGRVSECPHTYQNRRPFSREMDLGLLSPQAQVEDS

[16] = biological target: MAP kinase-activated protein kinase 2 (Homo sapiens, UniProt P49137); assay: Inhibition of MK2 (unknown origin)
[17] = biological target: T3, High affinity nerve growth factor receptor; assay: Binding affinity to TRKA (unknown origin) assessed as dissociation constant by KINOMEscan assay
LS174T [18] = assay: Cytotoxicity against human LS174T cells assessed as effect on cell viability incubated for 72 hrs by resazurin based analysis
MDA-MB-231 [19] = assay: Cytotoxicity against human MDA-MB-231 cells assessed as effect on cell viability incubated for 72 hrs by resazurin based analysis; settings: MDA-MB-231, 72 h
KM12 = assay: cells; settings: Homo sapiens, KM12, 72 h
Description: Cytotoxicity against human KM12 cells assessed as inhibition of cell viability incubated for 72 hrs by resazurin based analysis

T1 sequence (O60674 whole entry): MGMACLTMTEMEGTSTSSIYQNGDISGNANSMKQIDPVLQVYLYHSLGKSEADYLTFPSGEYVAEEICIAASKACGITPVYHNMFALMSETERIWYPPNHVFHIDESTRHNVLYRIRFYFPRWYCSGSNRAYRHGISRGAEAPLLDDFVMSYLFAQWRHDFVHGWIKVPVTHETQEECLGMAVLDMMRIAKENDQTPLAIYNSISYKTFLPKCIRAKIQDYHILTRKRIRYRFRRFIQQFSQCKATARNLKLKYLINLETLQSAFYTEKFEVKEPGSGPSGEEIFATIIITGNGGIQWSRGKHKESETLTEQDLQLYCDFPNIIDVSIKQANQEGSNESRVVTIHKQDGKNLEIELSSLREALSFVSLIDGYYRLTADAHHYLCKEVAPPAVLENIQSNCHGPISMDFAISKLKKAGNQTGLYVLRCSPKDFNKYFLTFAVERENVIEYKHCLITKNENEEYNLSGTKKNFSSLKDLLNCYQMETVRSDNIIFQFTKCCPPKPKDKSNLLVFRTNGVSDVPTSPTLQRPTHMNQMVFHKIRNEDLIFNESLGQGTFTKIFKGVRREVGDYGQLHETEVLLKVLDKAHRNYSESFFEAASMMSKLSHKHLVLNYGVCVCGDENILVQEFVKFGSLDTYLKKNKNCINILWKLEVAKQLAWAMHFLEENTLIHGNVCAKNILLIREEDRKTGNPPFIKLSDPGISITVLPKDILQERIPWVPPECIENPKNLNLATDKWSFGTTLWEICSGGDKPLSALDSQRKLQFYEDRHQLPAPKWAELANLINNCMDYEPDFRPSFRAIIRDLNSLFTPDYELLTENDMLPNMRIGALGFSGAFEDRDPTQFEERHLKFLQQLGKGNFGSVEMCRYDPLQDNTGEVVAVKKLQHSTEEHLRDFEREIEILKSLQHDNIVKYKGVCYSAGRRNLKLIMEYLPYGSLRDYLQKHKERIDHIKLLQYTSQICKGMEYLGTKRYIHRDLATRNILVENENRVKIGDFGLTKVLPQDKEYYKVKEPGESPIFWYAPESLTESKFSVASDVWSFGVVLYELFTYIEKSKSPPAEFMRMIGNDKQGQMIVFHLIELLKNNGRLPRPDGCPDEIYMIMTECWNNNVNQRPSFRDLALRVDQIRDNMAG
BDNF/NT-3 growth factors receptor, sequence (Q16620 whole entry): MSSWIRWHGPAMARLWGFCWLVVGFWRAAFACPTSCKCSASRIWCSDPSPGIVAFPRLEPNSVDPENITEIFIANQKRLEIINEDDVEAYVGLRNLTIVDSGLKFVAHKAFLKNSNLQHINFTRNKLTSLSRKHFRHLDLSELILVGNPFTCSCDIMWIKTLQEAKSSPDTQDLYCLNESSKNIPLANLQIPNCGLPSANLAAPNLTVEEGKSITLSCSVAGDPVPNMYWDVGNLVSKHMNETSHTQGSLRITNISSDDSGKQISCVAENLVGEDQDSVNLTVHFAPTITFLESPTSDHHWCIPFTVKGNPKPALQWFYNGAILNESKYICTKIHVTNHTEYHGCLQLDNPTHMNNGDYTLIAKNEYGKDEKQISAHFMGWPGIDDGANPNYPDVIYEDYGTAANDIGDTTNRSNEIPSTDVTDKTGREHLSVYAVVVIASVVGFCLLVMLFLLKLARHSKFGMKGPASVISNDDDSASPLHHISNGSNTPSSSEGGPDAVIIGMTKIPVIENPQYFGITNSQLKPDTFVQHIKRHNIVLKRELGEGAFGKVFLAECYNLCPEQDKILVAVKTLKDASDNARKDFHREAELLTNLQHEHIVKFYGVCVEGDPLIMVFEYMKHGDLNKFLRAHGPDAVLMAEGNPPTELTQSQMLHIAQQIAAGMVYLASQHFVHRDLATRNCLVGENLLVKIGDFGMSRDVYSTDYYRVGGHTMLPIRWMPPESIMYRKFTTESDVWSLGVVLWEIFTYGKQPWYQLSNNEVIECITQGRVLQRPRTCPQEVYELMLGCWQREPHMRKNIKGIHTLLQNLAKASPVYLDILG
T2 sequence (P12931 2-536 limits assumed): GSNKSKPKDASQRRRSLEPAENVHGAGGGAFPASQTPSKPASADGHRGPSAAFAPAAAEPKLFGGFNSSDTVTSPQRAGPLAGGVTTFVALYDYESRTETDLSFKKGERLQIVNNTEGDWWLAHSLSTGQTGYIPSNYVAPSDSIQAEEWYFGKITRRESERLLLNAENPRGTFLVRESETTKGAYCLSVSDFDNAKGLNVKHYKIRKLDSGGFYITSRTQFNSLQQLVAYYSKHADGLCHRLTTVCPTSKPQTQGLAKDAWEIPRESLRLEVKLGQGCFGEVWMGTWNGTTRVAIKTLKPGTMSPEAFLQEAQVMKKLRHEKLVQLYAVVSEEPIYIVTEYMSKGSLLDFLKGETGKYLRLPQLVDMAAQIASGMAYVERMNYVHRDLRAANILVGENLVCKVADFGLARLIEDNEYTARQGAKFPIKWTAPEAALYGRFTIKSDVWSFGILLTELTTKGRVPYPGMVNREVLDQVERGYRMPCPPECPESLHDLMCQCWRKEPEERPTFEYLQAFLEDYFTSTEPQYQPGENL
T3 sequence (P04629 whole entry): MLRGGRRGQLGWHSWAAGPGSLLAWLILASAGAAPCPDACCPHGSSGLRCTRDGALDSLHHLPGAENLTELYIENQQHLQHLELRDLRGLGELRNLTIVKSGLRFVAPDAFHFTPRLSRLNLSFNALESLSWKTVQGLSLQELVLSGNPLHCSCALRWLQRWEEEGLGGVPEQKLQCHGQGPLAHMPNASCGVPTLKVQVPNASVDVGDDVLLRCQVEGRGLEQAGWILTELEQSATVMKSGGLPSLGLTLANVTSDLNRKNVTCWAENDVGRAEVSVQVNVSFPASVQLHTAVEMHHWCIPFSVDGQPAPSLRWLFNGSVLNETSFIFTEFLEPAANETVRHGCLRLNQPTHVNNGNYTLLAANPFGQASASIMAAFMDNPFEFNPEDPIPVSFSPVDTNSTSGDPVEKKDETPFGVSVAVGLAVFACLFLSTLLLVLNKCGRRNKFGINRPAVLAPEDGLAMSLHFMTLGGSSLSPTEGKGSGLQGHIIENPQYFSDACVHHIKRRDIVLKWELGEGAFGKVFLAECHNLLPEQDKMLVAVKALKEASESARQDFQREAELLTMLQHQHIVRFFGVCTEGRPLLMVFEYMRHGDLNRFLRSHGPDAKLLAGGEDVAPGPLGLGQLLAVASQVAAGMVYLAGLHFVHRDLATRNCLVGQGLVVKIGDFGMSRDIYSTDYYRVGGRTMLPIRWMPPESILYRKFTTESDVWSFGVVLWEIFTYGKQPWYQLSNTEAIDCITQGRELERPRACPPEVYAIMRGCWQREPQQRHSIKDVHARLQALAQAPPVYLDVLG
Tyrosine-protein kinase ABL1, sequence (P00519 whole entry): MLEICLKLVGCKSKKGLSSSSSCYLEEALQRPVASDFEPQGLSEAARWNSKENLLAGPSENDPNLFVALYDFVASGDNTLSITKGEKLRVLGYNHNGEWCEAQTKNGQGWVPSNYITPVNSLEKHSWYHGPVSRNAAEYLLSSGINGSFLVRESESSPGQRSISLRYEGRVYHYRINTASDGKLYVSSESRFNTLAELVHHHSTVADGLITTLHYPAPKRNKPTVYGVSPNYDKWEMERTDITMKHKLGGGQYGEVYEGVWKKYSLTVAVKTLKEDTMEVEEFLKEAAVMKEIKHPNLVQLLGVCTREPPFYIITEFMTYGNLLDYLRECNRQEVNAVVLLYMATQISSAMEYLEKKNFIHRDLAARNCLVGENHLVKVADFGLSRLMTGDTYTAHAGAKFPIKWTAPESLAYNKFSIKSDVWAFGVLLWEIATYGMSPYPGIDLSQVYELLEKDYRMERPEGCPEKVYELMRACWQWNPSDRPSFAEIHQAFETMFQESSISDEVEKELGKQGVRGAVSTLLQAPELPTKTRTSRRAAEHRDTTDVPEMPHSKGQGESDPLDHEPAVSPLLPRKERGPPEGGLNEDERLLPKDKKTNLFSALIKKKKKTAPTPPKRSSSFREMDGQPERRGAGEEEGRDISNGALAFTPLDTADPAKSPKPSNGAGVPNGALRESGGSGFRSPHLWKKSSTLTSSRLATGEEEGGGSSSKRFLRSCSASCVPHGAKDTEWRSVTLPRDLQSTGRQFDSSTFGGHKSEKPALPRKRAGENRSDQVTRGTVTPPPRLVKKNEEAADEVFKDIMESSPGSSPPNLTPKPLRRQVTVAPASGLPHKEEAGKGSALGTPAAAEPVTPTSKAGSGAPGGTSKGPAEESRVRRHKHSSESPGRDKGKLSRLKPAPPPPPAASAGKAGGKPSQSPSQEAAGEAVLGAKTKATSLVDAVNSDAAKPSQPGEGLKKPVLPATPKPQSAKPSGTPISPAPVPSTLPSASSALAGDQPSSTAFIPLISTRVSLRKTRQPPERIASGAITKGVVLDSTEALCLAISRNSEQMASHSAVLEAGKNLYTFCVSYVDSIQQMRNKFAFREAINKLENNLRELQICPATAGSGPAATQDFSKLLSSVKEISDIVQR
MAP kinase-activated protein kinase 2, sequence (P49137 whole entry): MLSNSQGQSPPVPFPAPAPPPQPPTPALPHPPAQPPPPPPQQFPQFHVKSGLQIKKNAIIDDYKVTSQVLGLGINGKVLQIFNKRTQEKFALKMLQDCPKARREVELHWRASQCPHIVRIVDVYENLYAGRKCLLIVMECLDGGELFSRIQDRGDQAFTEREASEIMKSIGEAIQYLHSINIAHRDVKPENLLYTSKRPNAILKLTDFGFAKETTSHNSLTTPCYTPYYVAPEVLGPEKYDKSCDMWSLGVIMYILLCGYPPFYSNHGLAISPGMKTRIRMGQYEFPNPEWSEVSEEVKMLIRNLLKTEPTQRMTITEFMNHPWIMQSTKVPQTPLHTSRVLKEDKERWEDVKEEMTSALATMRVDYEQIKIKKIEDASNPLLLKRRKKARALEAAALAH

IC50 [1] | half-life [2] | microsomal CLint [3] | fraction unbound [4] | Papp A→B [5] | Kd [6] | IC50 [7] | Kd [10] | Kd [11] | Kd [12] | Kd [13] | IC50 [14] | IC50 [15] | IC50 [16] | Kd [17] | IC50 (KM12) | SMILES | viability at 100 µM (MDA-MB-231 [8]) | viability at 100 µM (LS174T [9]) | IC50 (LS174T [18]) | IC50 (MDA-MB-231 [19])
177 nM | 1.75 h | 66.2 µL/min/mg | 0.043 | 8 ×10⁻⁶ cm/s |  |  |  |  |  |  |  |  |  |  |  | CC(=O)Nc1cccc(-c2cnc(N)c(N[C@H](C)c3ccccc3)n2)c1 |  |  |  | 
663 nM |  |  |  |  | 180 nM | 4520 nM |  |  |  |  |  |  |  |  |  | CC(Nc1nc(-c2cccnc2)cnc1N)c1ccccc1 (racemic) | 43% | 83% |  | 
 | 0.653 h | 177 µL/min/mg | 0.004 |  | 150 nM |  | 5300 nM | 1100 nM | 640 nM | 36 nM | 870 nM | 70 nM | 750 nM | 52 nM | < 300 nM | CC(Nc1nc(-c2cccc(N(C)C)c2)cnc1N)c1ccccc1 (racemic) |  |  | > 10000 nM | > 10000 nM
